Measured values: ChEMBL document CHEMBL1201862, “PubChem BioAssay data set” (2004)
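Step 1: Grow cells in 96-well plates. Step 2: Expose to compound for 48 hours at 5 concentrations. Step 3: Interpolate endpoints linearly; if unreached, use highest concentration. Here, GI50 denotes the concentration required for 50% inhibition of growth.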 The source made the active and inactive calls. Rule as the data show it: active = GI50 up to about 1.1 µM and inactive = higher.

Columns and labels:
Test in all cases: inhibition of tumour cell growth, NCI panel, 48 h
SF-295 = system: SF-295
K562 = system: K562
NCI-H226 = system: NCI-H226
OVCAR-4 = system: OVCAR-4
OVCAR-8 = system: OVCAR-8
TK-10 = system: TK-10
CAKI-1 = system: CAKI-1
LOX IMVI = system: LOX IMVI
RXF 393 = system: RXF 393
SNB-19 = system: SNB-19
HT-29 = system: HT-29
HL-60 = system: HL-60
HCT-116 = system: HCT-116
NCI-H522 = system: NCI-H522
SW-620 = system: SW-620
OVCAR-5 = system: OVCAR-5
SN12C = system: SN12C
786-0 = system: 786-0
CCRF-CEM = system: CCRF-CEM
NCI/ADR-RES = system: NCI/ADR-RES
T47D = system: T47D
EKVX = system: EKVX
OVCAR-3 = system: OVCAR-3
UACC-257 = system: UACC-257
KM12 = system: KM12
SR = system: SR
HOP-62 = system: HOP-62
NCI-H23 = system: NCI-H23
Hs-578T = system: Hs-578T
A549 = system: A549
M14 = system: M14
UACC-62 = system: UACC-62
MDA-N = system: MDA-N
DU-145 = system: DU-145
SF-268 = system: SF-268
ACHN = system: ACHN
SK-MEL-5 = system: SK-MEL-5
SK-MEL-2 = system: SK-MEL-2
UO-31 = system: UO-31
PC-3 = system: PC-3
MOLT-4 = system: MOLT-4
HCT-15 = system: HCT-15
BT-549 = system: BT-549
RPMI-8226 = system: RPMI-8226
NCI-H460 = system: NCI-H460
Malme-3M = system: Malme-3M
SK-MEL-28 = system: SK-MEL-28
HOP-92 = system: HOP-92
MDA-MB-231 = system: MDA-MB-231
IGROV-1 = system: IGROV-1
A498 = system: A498
U-251 = system: U-251
SNB-75 = system: SNB-75
HCC 2998 = system: HCC 2998
MDA-MB-435 = system: MDA-MB-435
MCF7 = system: MCF7
SF-539 = system: SF-539
COLO 205 = system: COLO 205

O=C(O)c1oc(C(=O)O)c(C(=O)O)c1C(=O)O
GI50 (SF-295): > 100 µM (inactive)
GI50 (K562): > 100 µM (inactive)
GI50 (NCI-H226): 58.9 µM (inactive)
GI50 (OVCAR-4): > 100 µM (inactive)
GI50 (OVCAR-8): > 100 µM (inactive)
GI50 (TK-10): > 100 µM (inactive)
GI50 (CAKI-1): > 100 µM (inactive)
GI50 (LOX IMVI): > 100 µM (inactive)
GI50 (RXF 393): > 100 µM (inactive)
GI50 (SNB-19): > 100 µM (inactive)
GI50 (HT-29): > 100 µM (inactive)
GI50 (HL-60): > 100 µM (inactive)
GI50 (HCT-116): > 100 µM (inactive)
GI50 (NCI-H522): > 100 µM (inactive)
GI50 (SW-620): > 100 µM (inactive)
GI50 (OVCAR-5): > 100 µM (inactive)
GI50 (SN12C): > 100 µM (inactive)
GI50 (786-0): > 100 µM (inactive)
GI50 (CCRF-CEM): > 100 µM (inactive)
GI50 (NCI/ADR-RES): > 100 µM (inactive)
GI50 (T47D): > 100 µM (inactive)
GI50 (EKVX): > 100 µM (inactive)
GI50 (OVCAR-3): > 100 µM (inactive)
GI50 (UACC-257): > 100 µM (inactive)
GI50 (KM12): > 100 µM (inactive)
GI50 (SR): > 100 µM (inactive)
GI50 (HOP-62): > 100 µM (inactive)
GI50 (NCI-H23): > 100 µM (inactive)
GI50 (Hs-578T): > 100 µM (inactive)
GI50 (A549): > 100 µM (inactive)
GI50 (M14): > 100 µM (inactive)
GI50 (UACC-62): > 100 µM (inactive)
GI50 (MDA-N): > 100 µM (inactive)
GI50 (DU-145): > 100 µM (inactive)
GI50 (SF-268): > 100 µM (inactive)
GI50 (ACHN): > 100 µM (inactive)
GI50 (SK-MEL-5): > 100 µM (inactive)
GI50 (SK-MEL-2): > 100 µM (inactive)
GI50 (UO-31): > 100 µM (inactive)
GI50 (PC-3): > 100 µM (inactive)
GI50 (MOLT-4): > 100 µM (inactive)
GI50 (HCT-15): > 100 µM
GI50 (BT-549): > 100 µM (inactive)
GI50 (RPMI-8226): > 100 µM (inactive)
GI50 (NCI-H460): > 100 µM (inactive)
GI50 (Malme-3M): > 100 µM (inactive)
GI50 (SK-MEL-28): > 100 µM (inactive)
GI50 (HOP-92): > 100 µM (inactive)
GI50 (MDA-MB-231): > 100 µM (inactive)
GI50 (IGROV-1): > 100 µM (inactive)
GI50 (A498): > 100 µM (inactive)
GI50 (U-251): > 100 µM (inactive)

C=C(NC(=O)C(=C)NC(=O)c1ccc2c(n1)-c1coc(n1)C(=C)NC(=O)C(=C)NC(=O)c1nc(oc1C)C(=C)NC(=O)C(C(C)(C)O)NC(=O)C(=C)NC(=O)c1coc(n1)/C(=C/C)NC(=O)[C@H]([C@@H](C)O)NC(=O)c1csc-2n1)C(N)=O (stereo partly drawn)
GI50 (SF-295): > 87.5 µM (inactive)
GI50 (SNB-75): > 87.5 µM (inactive)
GI50 (K562): > 87.5 µM (inactive)
GI50 (NCI-H226): > 87.5 µM (inactive)
GI50 (OVCAR-4): > 87.5 µM (inactive)
GI50 (HCC 2998): > 87.5 µM (inactive)
GI50 (OVCAR-8): > 87.5 µM (inactive)
GI50 (TK-10): > 87.5 µM (inactive)
GI50 (CAKI-1): > 87.5 µM (inactive)
GI50 (MDA-MB-435): > 87.5 µM (inactive)
GI50 (LOX IMVI): 53.8 µM (inactive)
GI50 (RXF 393): > 87.5 µM (inactive)
GI50 (SNB-19): > 87.5 µM (inactive)
GI50 (HT-29): > 8.75 µM (inactive)
GI50 (HL-60): > 87.5 µM (inactive)
GI50 (HCT-116): > 87.5 µM (inactive)
GI50 (NCI-H522): > 87.5 µM (inactive)
GI50 (SW-620): > 87.5 µM (inactive)
GI50 (OVCAR-5): > 87.5 µM (inactive)
GI50 (SN12C): > 87.5 µM (inactive)
GI50 (786-0): > 87.5 µM (inactive)
GI50 (CCRF-CEM): > 87.5 µM (inactive)
GI50 (NCI/ADR-RES): > 87.5 µM (inactive)
GI50 (EKVX): > 87.5 µM (inactive)
GI50 (OVCAR-3): > 87.5 µM (inactive)
GI50 (UACC-257): > 87.5 µM (inactive)
GI50 (KM12): 66.7 µM (inactive)
GI50 (SR): > 87.5 µM (inactive)
GI50 (HOP-62): 81.5 µM (inactive)
GI50 (NCI-H23): > 87.5 µM (inactive)
GI50 (MCF7): > 87.5 µM (inactive)
GI50 (Hs-578T): > 87.5 µM (inactive)
GI50 (A549): > 87.5 µM (inactive)
GI50 (M14): 55 µM (inactive)
GI50 (MDA-N): > 87.5 µM (inactive)
GI50 (DU-145): > 87.5 µM (inactive)
GI50 (SF-268): > 87.5 µM (inactive)
GI50 (ACHN): > 87.5 µM (inactive)
GI50 (SK-MEL-5): 41.6 µM (inactive)
GI50 (SK-MEL-2): > 87.5 µM (inactive)
GI50 (UO-31): > 87.5 µM (inactive)
GI50 (PC-3): > 87.5 µM (inactive)
GI50 (MOLT-4): > 87.5 µM (inactive)
GI50 (HCT-15): > 87.5 µM
GI50 (SF-539): > 87.5 µM (inactive)
GI50 (BT-549): 37.3 µM (inactive)
GI50 (RPMI-8226): > 87.5 µM (inactive)
GI50 (NCI-H460): 59.2 µM (inactive)
GI50 (Malme-3M): > 87.5 µM (inactive)
GI50 (SK-MEL-28): > 87.5 µM (inactive)
GI50 (HOP-92): > 87.5 µM (inactive)
GI50 (MDA-MB-231): > 87.5 µM (inactive)
GI50 (IGROV-1): 61.1 µM (inactive)
GI50 (A498): > 87.5 µM (inactive)
GI50 (U-251): > 87.5 µM (inactive)
GI50 (COLO 205): 72.9 µM (inactive)
